The results in this text go back to patent publication US20140221286A1, “SODIUM CHANNEL BLOCKERS REDUCE GLUCAGON SECRETION” (Gilead Sciences, Inc., priority 2011, published 2014).

In experiment [1] the test system is peak Na+ current (INa) in rat isolated pancreatic α-cells. The experiment is described as follows: Peak Na+ current (INa) in isolated pancreatic α-cells, perforated patch-clamp. In kind it is cell-based. The method, then:
Acutely isolated pancreatic islets were allowed to recover overnight at 37° C./5% CO2 in Islet Media (RMPI 1640 supplemented with 10 mM HEPES, 1 mM sodium pyruvate, 10% FBS, 100 U/mL penicillin, 100 μg/mL streptomycin, 2 mM L-glutamine). The islets were resuspended and then centrifuged for 3 minutes at 200×g. The supernatant was discarded and 20 mL of filtered DPBS-EDTA was added (DPBS without Ca and Mg, 3 mM EDTA (G Biosciences), 0.5% BSA (Sigma), 1.5 mM dextrose (Sigma). The islets were incubated for 3 minutes at 37° C./5% CO2 and then centrifuged for 3 minutes at 200×g. The pellet was resuspended in 5 mL of pre-warmed Accutase (Sigma) and transferred into a 60 mm suspension culture dish and incubated for 3 minutes at 37° C./5% CO2. The digested islets were centrifuged for 3 minutes at 200×g to remove the accutase and the pellet was resuspended in 20 mL of room temperature DPBS-EDTA as defined above but with BSA increased to 4%. The digested islets were gently triturated 10 times with a flamed, glass Pasteur pipette and the suspension was then applied to a […] cell strainer. The resulting single cell suspension was centrifuged for 3 minutes at 200×g and the cells were resuspended in 2 mL of pre-warmed Islet Media. The number of live cells was counted and diluted to 1×10^5 with Islet Media. […]
Membrane potential and ion channel currents were recorded 24-72 hours after dispersion using the perforated patch configuration. […] Series resistance (Rs) was monitored using a voltage step from −70 mV to 0 mV (5 ms, 0.5 Hz) and was allowed to stabilize prior to beginning the experiment (Rs<30 MOhm).
The identity of the α-cell was confirmed using cell size (membrane capacitance <6 pF) and the presence of electrical activity in low (3 mM) extracellular glucose, which are hallmarks of dispersed α-cells. […] All recordings were made using pClamp 10.2 and were analyzed using Microsoft Excel 2003, Graphpad Prism7 or OriginPro7.
Recordings of ionic currents were made at 32° C. […] INa was measured using a voltage step to 0 mV (20 ms, 0.2 Hz) from a holding potential of either −70 mV or −90 mV. […]
For orientation: The patch-clamp technique gives a direct electrical read-out from membranes.

Experiment [2] concerns ZDF diabetic rats. Kind of experiment: ZDF diabetic rats, animal model of type 2 diabetes. The conditions noted are these: for water consumption (surrogate marker for diabetes) / HbA1c levels versus vehicle group / fasting plasma glucose levels versus vehicle: in Purina 5008 diet; for water consumption (surrogate marker for diabetes): during diabetes development; for HbA1c levels versus vehicle group: weeks 4, 6 and 8; for fasting plasma glucose levels versus vehicle: weeks 7 and 9. The class given is in vivo, rat. The procedure:
All sections from fluorescent staining were viewed under fluorescent microscope and the stained areas were digitally photographed at a magnification of 20×. The images taken at different magnification were normalized using the standard ruler grade (S1 Finder Graticule, 68040, Electron Microscopy Science, Hatfield, Pa.). Analyses of islet areas and entire section areas were performed using ImageJ software (NIH, MD). Three sections from each of 6 animals per treatment group were analyzed. Data are presented as mean±SEM. *, p<0.05; **, p<0.01; ***, p<0.001 by One-way ANOVA.
Male ZDF Leprfa/Crl rats were received at 5 weeks of age from Charles River Laboratories Inc., (Wilmington, Mass.) and were acclimated until study initiation at 6 weeks of age. Drugs were given to the animals in Purina 5008 for 10 weeks at doses approximately 170 mg/kg/d of ranolazine, 0.6 mg/kg/d of compound A and 30 mg/kg/d of sitagliptin as positive control. Fasting (12-14 h fast) and non-fasting blood samples were obtained by tail-nick and blood glucose was measured using a Freestyle Lite glucose meter (Abbott Laboratories Inc., Abbott Park, Ill.). HbA1c levels were monitored every other week. Twenty four hour water consumption as surrogate marker for diabetes for each rat was measured at least once per week.

Experiment [3] concerns rat pancreatic islets. Kind of experiment: Glucagon secretion in rat pancreatic islets under low glucose (3 mM), ELISA. In kind it is cell-based. The conditions noted are these: 3 mM glucose. (ELISA stands for enzyme-linked immunosorbent assay.)
Experiment [4] has as its system human pancreatic islets. Kind of experiment: Glucagon secretion in human pancreatic islets under low glucose (3 mM), ELISA. The class given is cell-based. The settings on record: 3 mM glucose.

On to `FC(F)(F)Oc1ccc(-c2ccc3nnc(C(F)(F)F)n3c2)cc1` [Compound A, 6-(4-(trifluoromethoxy)phenyl)-3-(trifluoromethyl)-[1,2,4]triazolo[4,3-α]pyridine], for which the “block of peak INa” value in experiment [1] (1 μM, at −90 and -70 mV) is recorded as 40. In addition, in experiment [2] (10 weeks treatment), the “insulin staining per islet” value was found to be 90.0±2.8%, the islet area/pancreas area is 0.51±0.16% and the “staining of glucagon per islet versus vehicle” value was “significantly less”. In addition, in experiment [2], the “water consumption (surrogate marker for diabetes)” value is “significantly prevented the increase”, the “HbA1c levels versus vehicle group” value is listed as “significantly lower” and the “fasting plasma glucose levels versus vehicle” value is “significantly lower”. Also, the “maximal reduction of glucagon secretion as compared to the vehicle control” value (from here on “maximal reduction of glucagon secretion”) in experiment [3] (at 3 μM) was 53±8%. Moreover, the “maximal reduction of glucagon secretion” value in experiment [4] (at 3 μM) is listed as 51±9%.

On to `COc1ccccc1OCC(O)CN1CCN(CC(=O)Nc2c(C)cccc2C)CC1` (racemic) [Ranolazine, ±-N-(2,6-dimethylphenyl)-4-[2-hydroxy-3-(2-methoxyphenoxy)-propyl]-1-piperazineacetamide], for which the “block of peak INa” value in experiment [1] (10 μM, holding potential −70 mV) is reported as 25%. In addition, the “block of peak INa” value in experiment [1] (10 μM, holding potential −90 mV) was determined as 10%. For the same molecule, in experiment [2] (10 weeks treatment), the “insulin staining per islet” value worked out at 91.2±1.5%, the insulin/glucagon ratio worked out at 12.1±2.4, the islet area/pancreas area came out at 0.36±0.1% and the “staining of glucagon per islet versus vehicle” value is “significantly less”. Besides, in experiment [2], the “water consumption (surrogate marker for diabetes)” value is recorded as “significantly prevented the increase”, the “HbA1c levels versus vehicle group” value is listed as “significantly lower” and the “fasting plasma glucose levels versus vehicle” value is on record as “significantly lower”. In addition, the “maximal reduction of glucagon secretion” value in experiment [3] (at 30 μM) is given as 53±6%. In addition, the “maximal reduction of glucagon secretion” value in experiment [4] (at 30 μM) is reported as 36±4%.
